From PubChem BioAssay (NCI)
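Each compound was tested at five concentrations against cells in 96-well plates for 48 hours. TGI: concentration producing complete growth inhibition.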

Columns and labels:
Assay in all cases: DTP human tumour cell line panel, 48 h
[1] = system: OVCAR-3 ovarian
[2] = system: HCT-15 colon
[3] = system: SK-MEL-28 melanoma
[4] = system: OVCAR-8 ovarian
[5] = system: HCC-2998 colon
[6] = system: HOP-62 NSCLC
[7] = system: HT29 colon
[8] = system: SK-MEL-2 melanoma
[9] = system: OVCAR-5 ovarian
[10] = system: U251 CNS
[11] = system: UACC-257 melanoma
[12] = system: RPMI-8226 leukemia
[13] = system: SW-620 colon
[14] = system: COLO 205 colon
[15] = system: CCRF-CEM leukemia
[16] = system: IGROV1 ovarian
[17] = system: KM20L2 colon
[18] = system: SK-MEL-5 melanoma
[19] = system: DMS 273 small cell lung
[20] = system: EKVX NSCLC
[21] = system: SR leukemia
[22] = system: DMS 114 small cell lung
[23] = system: LOX IMVI melanoma
[24] = system: UACC-62 melanoma
[25] = system: M14 melanoma
[26] = system: ACHN renal
[27] = system: TK-10 renal
[28] = system: DLD-1 colon
[29] = system: SNB-78 CNS
[30] = system: RXF 393 renal
[31] = system: KM12 colon
[32] = system: SF-268 CNS
[33] = system: HL-60(TB) leukemia
[34] = system: SN12C renal
[35] = system: MOLT-4 leukemia
[36] = system: K-562 leukemia
[37] = system: NCI-H23 lung
[38] = system: LXFL 529 NSCLC
[39] = system: A549 NSCLC
[40] = system: SNB-19 CNS
[41] = system: OVCAR-4 ovarian
[42] = system: SK-OV-3 ovarian
[43] = system: MALME-3M melanoma
[44] = system: 786-0 renal
[45] = system: UO-31 renal
[46] = system: SF-539 CNS
[47] = system: SNB-75 CNS
[48] = system: NCI-H460 lung
[49] = system: NCI-H522 lung
[50] = system: SF-295 CNS
[51] = system: HS 578T breast
[52] = system: DU-145 prostate
[53] = system: T-47D breast
[54] = system: MDA-N
[55] = system: PC-3 prostate
[56] = system: HOP-92 NSCLC
[57] = system: CAKI-1 renal
[58] = system: NCI/ADR-RES ovarian
[59] = system: MDA-MB-231 breast
[60] = system: BT-549 breast
[61] = system: HCT-116 colon
[62] = system: NCI-H226 lung
[63] = system: A498 renal
[64] = system: MDA-MB-435
[65] = system: MCF7 breast

## COC(=O)CCC1CCc2c(OC)ccc(OC)c2C1=O (centres undefined)
[1]
  TGI: > 100 µM
[2]
  TGI: > 100 µM
[3]
  TGI: > 100 µM
[4]
  TGI: > 100 µM
[5]
  TGI: > 100 µM
[6]
  TGI: > 100 µM
[7]
  TGI: > 100 µM
[8]
  TGI: > 100 µM
[9]
  TGI: > 100 µM
[10]
  TGI: > 100 µM
[11]
  TGI: > 100 µM
[12]
  TGI: > 100 µM
[13]
  TGI: > 100 µM
[14]
  TGI: > 100 µM
[15]
  TGI: > 100 µM
[16]
  TGI: > 100 µM
[17]
  TGI: > 100 µM
[18]
  TGI: > 100 µM
[19]
  TGI: > 100 µM
[20]
  TGI: > 100 µM
[21]
  TGI: > 100 µM
[22]
  TGI: > 100 µM
[23]
  TGI: > 100 µM
[24]
  TGI: > 100 µM
[25]
  TGI: > 100 µM
[26]
  TGI: > 100 µM
[27]
  TGI: > 100 µM
[28]
  TGI: > 100 µM
[29]
  TGI: > 100 µM
[30]
  TGI: > 100 µM
[31]
  TGI: > 100 µM
[32]
  TGI: > 100 µM
[33]
  TGI: > 100 µM
[34]
  TGI: > 100 µM
[35]
  TGI: > 100 µM
[36]
  TGI: > 100 µM
[37]
  TGI: > 100 µM
[38]
  TGI: > 100 µM
[39]
  TGI: > 100 µM
[40]
  TGI: > 100 µM
[41]
  TGI: > 100 µM
[42]
  TGI: > 100 µM
[43]
  TGI: > 100 µM
[44]
  TGI: > 100 µM
[45]
  TGI: > 100 µM
[46]
  TGI: > 100 µM
[47]
  TGI: > 100 µM
[48]
  TGI: > 100 µM
[49]
  TGI: > 100 µM
[50]
  TGI: > 100 µM

## Fc1ccc(N=C/C=C/Nc2ccc(F)cc2)cc1
[1]
  TGI: 31.1 µM
[2]
  TGI: 15.2 µM
[51]
  TGI: 47.2 µM
[3]
  TGI: 22 µM
[52]
  TGI: 26.7 µM
[4]
  TGI: 25.9 µM
[5]
  TGI: 19.5 µM
[6]
  TGI: 33 µM
[7]
  TGI: 24.2 µM
[8]
  TGI: 26.7 µM
[9]
  TGI: 25.3 µM
[10]
  TGI: 20.6 µM
[11]
  TGI: 26.8 µM
[12]
  TGI: 52 µM
[13]
  TGI: 20.7 µM
[14]
  TGI: 12.5 µM
[53]
  TGI: 29.4 µM
[15]
  TGI: > 51.3 µM
[16]
  TGI: 26.2 µM
[54]
  TGI: 18.5 µM
[55]
  TGI: 22.3 µM
[18]
  TGI: 22.3 µM
[20]
  TGI: 25.9 µM
[56]
  TGI: 33.1 µM
[21]
  TGI: 9.17 µM
[57]
  TGI: 28.2 µM
[23]
  TGI: 18.5 µM
[24]
  TGI: 16.8 µM
[25]
  TGI: 11.9 µM
[26]
  TGI: 15 µM
[27]
  TGI: 4.32 µM
[30]
  TGI: 30.5 µM
[58]
  TGI: 26.4 µM
[31]
  TGI: 19.9 µM
[32]
  TGI: 27.5 µM
[59]
  TGI: 30.1 µM
[33]
  TGI: 10.3 µM
[34]
  TGI: 28.3 µM
[60]
  TGI: 27.4 µM
[61]
  TGI: 18.9 µM
[62]
  TGI: 36.2 µM
[35]
  TGI: 38.5 µM
[36]
  TGI: 22.1 µM
[37]
  TGI: 48.4 µM
[39]
  TGI: 21.8 µM
[40]
  TGI: 26.9 µM
[41]
  TGI: 29.8 µM
[42]
  TGI: 28.8 µM
[63]
  TGI: 28.8 µM
[64]
  TGI: 20.8 µM
[43]
  TGI: 30.6 µM
[44]
  TGI: 16.4 µM
[45]
  TGI: 21 µM
[46]
  TGI: 27.2 µM
[47]
  TGI: 28.4 µM
[65]
  TGI: 28.3 µM
[48]
  TGI: 24.7 µM
[49]
  TGI: 27.6 µM
[50]
  TGI: 24.2 µM
